Data taken from US11331290B2, “Niclosamide for the treatment of cancer metastasis” (Max-Delbrück-Centrum für Molekulare Medizin in der …, priority 2011, dated 2022).

System: S100A4 mRNA
Experiment: S100A4 mRNA expression by qRT-PCR in colon cancer cells
Format: cell-based, human
Protocol: Total RNA was isolated from 4×10^5 cells plated in a 6-well-plates 24 hour before cells were lyzed with Trizol Reagent (Invitrogen). RNA was extracted with Trizol RNA extraction reagent (Invitrogen) according to the manufacturer's instructions. Quantification of the RNA concentration was performed with Nanodrop (Peqlab) and 50 ng total RNA was reverse transcribed with random hexamers in 10 mM MgCl2; 1× RT-buffer, 250 μM pooled dNTPs, 1 U per μL RNAse inhibitor and 2.5 U per μL MuLV reverse transcriptase (all Applied Biosystems). Reaction occurred at 42° C. for 15 minutes, 99° C. for 5 minutes and subsequent cooling at 5° C. for 5 minutes. The cDNA product was amplified in a total volume of 10 μL in 96-well-plates in the LightCycler 480 (Roche) using the following conditions: 95° C., 10 minutes, followed by 45 cycles of 95° C. for 10 seconds, 61° C. for 30 seconds and 72° C. for 4 seconds. For S100A4 cDNA quantification the following primer and probes were used: forward primer 5′-CTCAGCGCTTCTTCTTTC-3′, reverse primer 5′-GGGTCAGCAGCTCCTTTA-3′, fluorescein isothiocyanate probe 5′-[…]-3′, LCRed640-probe 5′-[…]-3′. For cDNA quantification of the housekeeping gene glucose-6-phosphate dehydrogenase (G6PD) the hG6PDH Roche Kit (Roche Diagnostics, Mannheim, Germany) was used according to manufacturers instructions. Data analysis was performed with LightCycler® 480 Software release 1.5.0 SP3. For each qRT-PCR reaction a mean of the duplicate was calculated. Each mean value of the expressed gene was normalized to the respective mean amount of the G6PD cDNA.
(A) Determination of the cytotoxicity of niclosamide on HCT116 cells. Cells were treated with increasing concentrations of niclosamide for 24 hours and cell viability was measured. (B) Effect of increasing concentrations of niclosamide on S100A4 expression. HCT116 cells were treated with increasing concentrations of niclosamide for 24 hours. S100A4 expression was determined by quantitative reverse-transcription-polymerase chain reaction (qRT-PCR) and immunoblot. (C) Time-dependency of niclosamide effect on S100A4 expression. HCT116 cells were treated with a single dose of 1 μM niclosamide for 24 hours and S100A4 expression was analyzed by qRT-PCR and immunoblot at indicated time points. Black bar indicates the chosen treatment conditions for further experiments. (D) Effect of daily doses of niclosamide on S100A4 expression. HCT116 cells were treated daily with 1 μM niclosamide and S100A4 expression was analyzed by qRT-PCR and immunoblot. Data is given as mean±SD (n>2). Differences in treated groups were compared with the control group by two-sided one-way analysis of variances and Bonferroni post hoc multiple comparison test.
(E) Effect of niclosamide in HCT116-vector and HCT116-S100A4 cells. HCT116-vector and HCT116-S100A4 cells were treated with 1 μM niclosamide for 24 hours and S100A4 expression was analyzed by qRT-PCR and immunoblot. Data is given as mean±SD (n>2). Comparison of niclosamide vs. solvent-treated cells was analyzed with Student's t test.
(A) S100A4 expression under niclosamide treatment. Cells were treated with 1 μM niclosamide for 24 hours. S100A4 expression was analyzed with qRT-PCR and immunoblot. (B) Cell migration under niclosamide treatment. Migration rates of cells treated with 1 μM niclosamide for 24 hours were determined in a Boyden chamber assay values were normalized to solvent-treated SW620 cells. (C) Cell invasion under niclosamide treatment. Cells were seeded onto Matrigel covered transwells and treated with 1 μM niclosamide for 24 hours. Invaded cells in the lower chamber were counted and normalized to solvent-treated SW620 cells. Differences in solvent vs. niclosamide-treated cells were analyzed by Student's t test. Data represent mean±SE of at least two independent experiments each performed in triplicate. (D) Directed migration under niclosamide treatment. Wounds of 300 μM width were set in a 60% confluent monolayer of cells on day 1. […]

## O=C(Nc1ccc([N+](=O)[O-])cc1Cl)c1cc(Cl)ccc1O [niclosamide, 2′,5-dichloro-4′-nitrosalicylanilide]
DLD-1, 1 μM, 24 h, mRNA barely detectable
  S100A4 mRNA: remained unchanged
HAB-68mut, 1 μM, 24 h
  S100A4 mRNA expression, mean difference control vs niclosamide: 0.55
HAB-68mut, 1 μM, 24 h, control 1.17
  S100A4 mRNA expression, mean (relative to HCT116 control): 0.62
HAB-92 wt, 1 μM, 24 h, control 0.03, statistically not significant
  S100A4 mRNA expression, mean (relative to HCT116 control): 0.01
HAB-92 wt, 1 μM, 24 h, statistically not significant
  S100A4 mRNA expression, mean difference control vs niclosamide: 0.02
HCT116, 1 μM daily for 3 days, 24 hours post-treatment, control 101.9%
  S100A4 mRNA, mean %: 58.0%
HCT116, 1 μM daily for 3 days, 48 hours post-treatment, control 98.1%
  S100A4 mRNA, mean %: 44.4%
HCT116, 1 μM daily for 3 days, 72 hours post-treatment, control 100.0%
  S100A4 mRNA, mean %: 57.9%
HCT116, 1 μM daily, 24 hours
  S100A4 mRNA, mean % of solvent-treated control: 46.0%
HCT116, 1 μM daily, 48 hours
  S100A4 mRNA, mean % of solvent-treated control: 44.5%
HCT116, 1 μM daily, 72 hours
  S100A4 mRNA, mean % of solvent-treated control: 59.5%
HCT116, 1 μM, 24 h (relative scale)
  S100A4 mRNA expression, mean difference control vs niclosamide: 0.54
HCT116, 1 μM, 24 h, control 1.00
  S100A4 mRNA expression, mean (relative to HCT116 control): 0.46
HCT116, 1 μM, single dose, 18 hours
  S100A4 mRNA, mean % of solvent-treated control: 47.5%
HCT116, 1 μM, single dose, 24 h
  S100A4 mRNA, mean % of solvent-treated control: 47.4%
HCT116, 1 μM, single dose, after 30-48 hours
  S100A4 mRNA and protein levels: returned to the control level
HCT116, 1.5 μM, 24 h
  S100A4 mRNA, mean % of solvent-treated control: 39.2%
HCT116, 2 μM, 24 h
  S100A4 mRNA, mean % of solvent-treated control: 39.1%
HCT116, 2.5 μM, 24 h
  S100A4 mRNA, mean % of solvent-treated control: 36.7%
HCT116, 24 hours post-treatment
  S100A4 mRNA, mean difference control vs niclosamide: 43.9%
HCT116, 48 hours post-treatment
  S100A4 mRNA, mean difference control vs niclosamide: 53.7%
HCT116, 72 hours post-treatment
  S100A4 mRNA, mean difference control vs niclosamide: 42.1%
HCT116, concentrations below 1 μM, 24 h
  change in S100A4 expression: No change
HCT116-S100A4, 1 μM, 24 h, not statistically significant
  S100A4 mRNA, mean difference control vs niclosamide: 104.7%
HCT116-S100A4, 1 μM, 24 h, solvent control 717.0%, not statistically significant
  S100A4 mRNA, mean %: 612.3%
HCT116-vector, 1 μM, 24 h
  S100A4 mRNA, mean % of solvent-treated control: 57.8%
  S100A4 mRNA, mean difference control vs niclosamide: 42.0%
LS174T, 1 μM, 24 h
  S100A4 mRNA, mean difference control vs niclosamide: 51.9%
LS174T, 1 μM, 24 h, solvent control 65.5%
  S100A4 mRNA, mean %: 13.5%
SW480, 1 μM, 24 h
  S100A4 mRNA, mean difference control vs niclosamide: 35.0%
SW480, 1 μM, 24 h, solvent control 41.0%
  S100A4 mRNA, mean %: 6.0%
SW620, 1 μM, 24 h
  S100A4 mRNA, mean difference control vs niclosamide: 68.8%
SW620, 1 μM, 24 h, solvent control 100.0%
  S100A4 mRNA, mean %: 31.2%
